Laboratory results: article PMC6711177, “Sorafenib-loaded hydroxyethyl starch-TG100-115 micelles for the treatment of liver cancer based on synergistic treatment” (Drug Delivery, 2019)

How the values were obtained:
in vivo = test: in vivo; parameters: species or system Sprague-Dawley rats; conditions: rat, iv
Description: Sprague-Dawley rats were randomly divided into three groups and each group contains 6 rats. The prepared micelles solution was injected through femoral vein and the dose was 20 mg/kg (sorafenib) and 30 mg/kg (TG100-115). Free sorafenib and TG100-115 solutions were used as reference and the dose is same as the micelles group. After the end of administration, appropriate blood was obtained from the retro-orbital sinus at preselected time intervals (5, 10, 15, 30, 60 min, 2, 4, 6, 8, 12, 24, 48 and 72 h). Then, the blood was centrifuged at 3500 rpm for 10 min to acquire final plasma.
The plasma concentration of sorafenib and TG100-115 was measured using a validated HPLC-MS/MS method. The specific conditions are as follows: poroshell 120 poroshell-C18 column (50 mm × 4.6 mm, 2.7 μm, Agilent) was chosen as an analytical column, and the column temperature was 40 °C. The mobile phase comprised acetonitrile and 10 mmol/L ammonium acetate containing 0.1% formic acid, and the flow rate was 0.7 mL/min. Imatinib and naproxen were chosen as internal standard (IS) to improve the accuracy of the measurement. The ion ionization of sorafenib and imatinib was positive ion ionization, while TG100-115 and naproxen were negative ion ionization. The specific MS parameters of analytes were shown in S1 (Supplemental 1).
Plasma samples are processed according to the standard operating practices described below. Briefly, add 150.0 μL of plasma sample and 20.0 μL of the IS solution in a 2.0 mL EP tube. Then, the solution was vortexed for 1.0 min and added 300 μL of ice acetonitrile to precipitate protein. After vortexing for 1.0 min, the solution was centrifuged at 15000 rpm for 10 min. After that, 150 μL of supernatant was collected for quantitative analysis.

[1] = test system: Hep-3B-xenografted nude mouse model; test: In vivo anti-tumor activity and safety in Hep-3B-xenografted nude mouse model; conditions: Hep-3B nude mouse, TG100-115 30 mg/kg and/or sorafenib 20 mg/kg; for IRT (tumor inhibition rate): versus normal saline
Description: The in vivo anti-tumor activity and safety of the prepared micelles was investigated by using Hep-3B-xenografted nude mouse model. The mice were randomly divided into six groups (n = 6) when the tumor volumes reached around 150 mm^3. The tumor-bearing mice were treated with non-targeted micelles solution, targeted micelle solution, TG100-115 solution, sorafenib solution, mixed sorafenib/TG100-115 solution and normal saline. […] The mice were sacrificed on day 28. Thereafter, the tumors were totally excised and precisely weighed. The tumor inhibitory rates were calculated using the formula: Tumor inhibition rate (%) = (Vblank −Vsample)/Vblank × 100%, Vblank, and Vsample represent the tumor volumes in the blank and test, reference group respectively.

[2] = parameters: method as in Hsu et al., 2018; Wang et al., 2018; conditions: checkpoint inhibitor alone only 20%, ref Hsu et al., 2018, Wang et al.; cited from earlier work
[3] = twice a week for 4 weeks, day 28

Structure (SMILES)	AUC(0-inf) (in vivo; Sprague-Dawley, 20 mg/kg)	AUC(0-t) (in vivo; Sprague-Dawley, 20 mg/kg)	Cmax (in vivo; Sprague-Dawley, 20 mg/kg)	Tmax (in vivo; Sprague-Dawley, 20 mg/kg)	clearance (in vivo; Sprague-Dawley, 20 mg/kg)	half-life (in vivo; Sprague-Dawley, 20 mg/kg)	Body weight Final [1, 3]	Tumor weight [1, 3]	IRT (tumor inhibition rate) [1, 3]	Body weight Initial ([1]; before treatment)	CLz of TG100-115 (in vivo; 30 mg/kg)	efficiency of checkpoint inhibitor in the treatment of immune-tolerant mice when combined with TG100-115 [2]
CNC(=O)c1cc(Oc2ccc(NC(=O)Nc3ccc(Cl)c(C(F)(F)F)c3)cc2)ccn1 [Sorafenib]	78.6 ± 20.6 ng·h/mL	74.5 ± 18.7 ng·h/mL	17.3 ± 3.2 ng/mL	0.167 ± 0.073 h	423 mL/min/kg	8.8 ± 1.4 h	34.2 g	2.48 ± 0.36 g	46.09%	23.6 g	–	–
Nc1nc(N)c2nc(-c3cccc(O)c3)c(-c3cccc(O)c3)nc2n1 [TG100-115]	–	–	–	–	–	–	–	2.72 ± 0.31 g	40.87%	–	545 ± 91.7 mL/min/kg	80%
